Measurements as given in US20210346357A1 (priority 2020, published 2021).
Several values for one entry are separate records, joined by “and”; a condition that tells them apart may be missing. Equal values may be shown once.

System: Symptomatic Acute Lung Injury Associated with COVID-19
Test: Phase 2 study Part 1, inhaled compound 1 in hospitalized COVID-19 patients
Details: COVID-19 patients; for Modified Borg Dyspnea Score, Baseline, Mean: baseline value
[1] = 1 mg, matched D1 and D7 samples

Compound: CCc1cc(O)ccc1-c1ccc2c(-c3nc4c([nH]3)CN(C(C)C)[C@H](C(=O)N3CC(N(C)C)C3)C4)n[nH]c2c1 [Compound 1, (S)-(3-(dimethylamino)azetidin-1-yl)(2-(6-(2-ethyl-4-hydroxyphenyl)-1H-indazol-3-yl)-5-isopropyl-4,5,6,7-tetrahydro-3H-imidazo[4,5-c]pyridin-6-yl)methanone]
- exposures provided by the loading dose on Day 1: consistent with pseudo steady-state
- Clinical Status at Day 28: 1-Not hospitalized, no limitations on activities, number (1 mg): 5
- Clinical Status at Day 28: 1-Not hospitalized, no limitations on activities, percent (1 mg): 83.3%
- Clinical Status at Day 28: 2-Not hospitalized, but with limitations on activities and/or requiring home oxygen, number (1 mg): 0
- Clinical Status at Day 28: 3-Hospitalized, not requiring supplemental oxygen, and no longer requiring ongoing medical care, number (1 mg): 0
- Clinical Status at Day 28: 4-Hospitalized, not requiring supplemental oxygen, but requiring ongoing medical care, number (1 mg): 0
- Clinical Status at Day 28: 5-Hospitalized, requiring supplemental oxygen, number (1 mg): 0
- Clinical Status at Day 28: 6-Hospitalized, on non-invasive ventilation or high-flow oxygen devices, number (1 mg): 0
- Clinical Status at Day 28: 7-Hospitalized, on invasive mechanical ventilation or extracorporeal membrane oxygenation, number (1 mg): 0
- Clinical Status at Day 28: 8-Death, number (1 mg): 1
- Clinical Status at Day 28: 8-Death, percent (1 mg): 16.7%
- Still in Hospital at Day 28, number (1 mg): 0
- Time to Hospital Discharge (Days) Median (1 mg): 18.5 days
- Modified Borg Dyspnea Score, Baseline, Mean (1 mg group): 6.17
- Modified Borg Dyspnea Score Change from Baseline, Mean (1 mg, Day 2): 0.33
- Modified Borg Dyspnea Score Change from Baseline, Mean (1 mg, Day 3): −0.33
- Modified Borg Dyspnea Score Change from Baseline, Mean (1 mg, Day 4): −0.83
- Modified Borg Dyspnea Score Change from Baseline, Mean (1 mg, Day 5): −1.17
- Modified Borg Dyspnea Score Change from Baseline, Mean (1 mg, Day 6): −1.33
- Hospital Discharge, number (1 mg, Day 7): 0
- Modified Borg Dyspnea Score Change from Baseline, Mean (1 mg, Day 7): −1.50
- Hospital Discharge, number (1 mg, Day 14): 2
- Hospital Discharge, percent (1 mg, Day 14): 33.3%
- Hospital Discharge, number (1 mg, Day 21): 3
- Hospital Discharge, percent (1 mg, Day 21): 50.0%
- # Subjects Respiratory Failure-Free, percent (1 mg, Day 28): 83.3%
- Hospital Discharge, number (1 mg, Day 28): 5
- Hospital Discharge, percent (1 mg, Day 28): 83.3%
- Proportion of Subjects Alive and Respiratory Failure-free (1 mg, Day 28): 83.3%
- Proportion of Subjects Alive and Respiratory Failure-free, number (1 mg, Day 28): 5
- # Subjects Respiratory Failure-Free (1 mg, Day 28, number of subjects): 5
- IFN-γ, within-group percent difference in geometric mean from baseline [1]: −46.12%
- IL-6, within-group percent difference in geometric mean from baseline [1]: 29.45%
- IL-8, within-group percent difference in geometric mean from baseline [1]: −16.78%
- IL-10, within-group percent difference in geometric mean from baseline [1]: −26.59%
- IP-10, within-group percent difference in geometric mean from baseline [1]: −20.65%
- MCP-1, within-group percent difference in geometric mean from baseline [1]: 13.90%
- MDC, within-group percent difference in geometric mean from baseline [1]: −55.03%
- RAGE, within-group percent difference in geometric mean from baseline [1]: −14.22%
- TARC, within-group percent difference in geometric mean from baseline [1]: −57.21%
- hsCRP, within-group percent difference in geometric mean from baseline [1]: −34.85%
- Time to Hospital Discharge (Days) Mean ± SD (1 mg, still hospitalized or died = 28 days): 18.83 ± 6.795 days
- # Subjects Alive, percent (1 mg, through Day 28): 83.3%
- Died (All-Cause Mortality), percent (1 mg, through Day 28): 16.7%
- # Subjects Alive (1 mg, through Day 28, number of subjects): 5
- Clinical Status at Day 28: 1-Not hospitalized, no limitations on activities, number (3 mg): 5
- Clinical Status at Day 28: 1-Not hospitalized, no limitations on activities, percent (3 mg): 83.3%
- Clinical Status at Day 28: 2-Not hospitalized, but with limitations on activities and/or requiring home oxygen, number (3 mg): 0
- Clinical Status at Day 28: 3-Hospitalized, not requiring supplemental oxygen, and no longer requiring ongoing medical care, number (3 mg): 0
- Clinical Status at Day 28: 4-Hospitalized, not requiring supplemental oxygen, but requiring ongoing medical care, number (3 mg): 1
- Clinical Status at Day 28: 4-Hospitalized, not requiring supplemental oxygen, but requiring ongoing medical care, percent (3 mg): 16.7%
- Clinical Status at Day 28: 5-Hospitalized, requiring supplemental oxygen, number (3 mg): 0
- Clinical Status at Day 28: 6-Hospitalized, on non-invasive ventilation or high-flow oxygen devices, number (3 mg): 0
- Clinical Status at Day 28: 7-Hospitalized, on invasive mechanical ventilation or extracorporeal membrane oxygenation, number (3 mg): 0
- Clinical Status at Day 28: 8-Death, number (3 mg): 0
- Still in Hospital at Day 28, number (3 mg): 0
- Time to Hospital Discharge (Days) Median (3 mg): 17.0 days
- Modified Borg Dyspnea Score, Baseline, Mean (3 mg group): 6.71
- Modified Borg Dyspnea Score Change from Baseline, Mean (3 mg, Day 2): −0.43
- Modified Borg Dyspnea Score Change from Baseline, Mean (3 mg, Day 3): −1.00
- Modified Borg Dyspnea Score Change from Baseline, Mean (3 mg, Day 4): −0.50
- Modified Borg Dyspnea Score Change from Baseline, Mean (3 mg, Day 5): −1.20
- Modified Borg Dyspnea Score Change from Baseline, Mean (3 mg, Day 6): −1.20
- Hospital Discharge, number (3 mg, Day 7): 1
- Hospital Discharge, percent (3 mg, Day 7): 14.3%
- Modified Borg Dyspnea Score Change from Baseline, Mean (3 mg, Day 7): −1.80
- Hospital Discharge, number (3 mg, Day 14): 2
- Hospital Discharge, percent (3 mg, Day 14): 28.6%
- Hospital Discharge, number (3 mg, Day 21): 6
- Hospital Discharge, percent (3 mg, Day 21): 86% and 85.7%
- # Subjects Respiratory Failure-Free, percent (3 mg, Day 28): 85.7%
